Assay results reported in patent US20080200454A1, “CARBON-LINKED TETRAHYDRO-PYRAZOLO-PYRIDINE MODULATORS OF CATHEPSIN S” (priority 2007, published 2008).
Like-named read-outs stand apart in the source and are kept apart here.

Target: Recombinant human cathepsin S (CatS) (Homo sapiens, UniProt P25774)
Test: Recombinant human cathepsin S (CatS) inhibition assay, fluorogenic substrate Z-Valine-Valine-Arginine-AMC;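 also: Baculovirus-expressed CatS in pH 5.0 sodium acetate buffer with DTT and NaCl, fluorescence read each minute over 20 min, inhibition derived from rate slope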

Sequence of Recombinant human cathepsin S (CatS) (P25774 115-331): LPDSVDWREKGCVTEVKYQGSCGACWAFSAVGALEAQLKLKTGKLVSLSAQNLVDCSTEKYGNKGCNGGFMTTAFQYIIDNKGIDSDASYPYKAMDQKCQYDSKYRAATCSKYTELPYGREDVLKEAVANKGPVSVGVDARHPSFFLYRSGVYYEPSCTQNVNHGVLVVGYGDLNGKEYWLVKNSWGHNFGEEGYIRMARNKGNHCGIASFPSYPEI

IC50 | SMILES | IC50 (CatS IC50)
 | CS(=O)(=O)N1CCc2c(c(-c3ccc(Cl)c(C#Cc4cccc(CNCC5CCOCC5)c4)c3)nn2CCCN2CCOCC2)C1 [Example 185, 1-[3-({2-Chloro-5-[5-(methylsulfonyl)-1-(3-morpholin-4-ylpropyl)-4,5,6,7-tetrahydro-1H-pyrazolo[4,3-c]pyridin-3-yl]phenyl}ethynyl)phenyl]-N-(tetrahydro-2H-pyran-4-ylmethyl)methanamine] | 520 nM
 | CS(=O)(=O)N1CCc2c(c(-c3ccc(Cl)c(CCc4cccc(CNCC5CCOCC5)c4)c3)nn2CCCN2CCOCC2)C1 [Example 186, 1-[3-(2-{2-Chloro-5-[5-(methylsulfonyl)-1-(3-morpholin-4-ylpropyl)-4,5,6,7-tetrahydro-1H-pyrazolo[4,3-c]pyridin-3-yl]phenyl}ethyl)phenyl]-N-(tetrahydro-2H-pyran-4-ylmethyl)methanamine] | 690 nM
 | CS(=O)(=O)N1CCc2c(c(-c3ccc(Cl)c(C#Cc4cccc(CNCc5ccccn5)c4)c3)nn2CCCN2CCOCC2)C1 [Example 187, 1-[3-({2-Chloro-5-[5-(methylsulfonyl)-1-(3-morpholin-4-ylpropyl)-4,5,6,7-tetrahydro-1H-pyrazolo[4,3-c]pyridin-3-yl]phenyl}ethynyl)phenyl]-N-(pyridin-2-ylmethyl)methanamine] | 150 nM
 | COC(=O)CNCc1cccc(C#Cc2cc(-c3nn(CCCN4CCOCC4)c4c3CN(S(C)(=O)=O)CC4)ccc2Cl)c1 [Example 188, Methyl N-{[3-({2-chloro-5-[5-(methylsulfonyl)-1-(3-morpholin-4-ylpropyl)-4,5,6,7-tetrahydro-1H-pyrazolo[4,3-c]pyridin-3-yl]phenyl}ethynyl)phenyl]methyl}glycinate] | 550 nM
 | CS(=O)(=O)N1CCc2c(c(-c3ccc(Cl)c(C#Cc4cccc(CNCC(=O)O)c4)c3)nn2CCCN2CCOCC2)C1 [Example 189, N-{[3-({2-Chloro-5-[5-(methylsulfonyl)-1-(3-morpholin-4-ylpropyl)-4,5,6,7-tetrahydro-1H-pyrazolo[4,3-c]pyridin-3-yl]phenyl}ethynyl)phenyl]methyl}glycine] | 140 nM
1110 nM | COC(=O)[C@@H]1Cc2ccc(C#Cc3cc(-c4nn(CCCN5CCOCC5)c5c4CN(S(C)(=O)=O)CC5)ccc3Cl)cc2CN1C(=O)OC(C)(C)C [Example 190, 2-(1,1-Dimethylethyl) 3-methyl (3S)-7-({2-chloro-5-[5-(methylsulfonyl)-1-(3-morpholin-4-ylpropyl)-4,5,6,7-tetrahydro-1H-pyrazolo[4,3-c]pyridin-3-yl]phenyl}ethynyl)-3,4-dihydroisoquinoline-2,3(1H)-dicarboxylate] | 
630 nM | CC(C)(C)OC(=O)N1Cc2cc(C#Cc3cc(-c4nn(CCCN5CCOCC5)c5c4CN(S(C)(=O)=O)CC5)ccc3Cl)ccc2C[C@H]1C(=O)O [Example 191, (3S)-7-({2-Chloro-5-[5-(methylsulfonyl)-1-(3-morpholin-4-ylpropyl)-4,5,6,7-tetrahydro-1H-pyrazolo[4,3-c]pyridin-3-yl]phenyl}ethynyl)-2-{[(1,1-dimethylethyl)oxy]carbonyl}-1,2,3,4-tetrahydroisoquinoline-3-carboxylic acid] | 
 | CNC(=O)[C@@H]1Cc2ccc(C#Cc3cc(-c4nn(CCCN5CCOCC5)c5c4CN(S(C)(=O)=O)CC5)ccc3Cl)cc2CN1 [Example 192, (3S)-7-({2-Chloro-5-[5-(methylsulfonyl)-1-(3-morpholin-4-ylpropyl)-4,5,6,7-tetrahydro-1H-pyrazolo[4,3-c]pyridin-3-yl]phenyl}ethynyl)-N-methyl-1,2,3,4-tetrahydroisoquinoline-3-carboxamide] | 80 nM
 | CN(C)C(=O)[C@@H]1Cc2ccc(C#Cc3cc(-c4nn(CCCN5CCOCC5)c5c4CN(S(C)(=O)=O)CC5)ccc3Cl)cc2CN1 [Example 193, (3S)-7-({2-Chloro-5-[5-(methylsulfonyl)-1-(3-morpholin-4-ylpropyl)-4,5,6,7-tetrahydro-1H-pyrazolo[4,3-c]pyridin-3-yl]phenyl}ethynyl)-N,N-dimethyl-1,2,3,4-tetrahydroisoquinoline-3-carboxamide] | 50 nM
 | CS(=O)(=O)N1CCc2c(c(-c3ccc(Cl)c(C#Cc4ccc5c(c4)CN[C@H](C(=O)N4CCOCC4)C5)c3)nn2CCCN2CCOCC2)C1 [Example 194, (3S)-7-({2-Chloro-5-[5-(methylsulfonyl)-1-(3-morpholin-4-ylpropyl)-4,5,6,7-tetrahydro-1H-pyrazolo[4,3-c]pyridin-3-yl]phenyl}ethynyl)-3-(morpholin-4-ylcarbonyl)-1,2,3,4-tetrahydroisoquinoline] | 20 nM
 | CS(=O)(=O)N1CCc2c(c(-c3ccc(Cl)c(C#Cc4ccc5c(c4)CN[C@@H](C(=O)N4CCCC4)C5)c3)nn2CCCN2CCOCC2)C1 [Example 196, (3R)-7-({2-Chloro-5-[5-(methylsulfonyl)-1-(3-morpholin-4-ylpropyl)-4,5,6,7-tetrahydro-1H-pyrazolo[4,3-c]pyridin-3-yl]phenyl}ethynyl)-3-(pyrrolidin-1-ylcarbonyl)-1,2,3,4-tetrahydroisoquinoline] | 650 nM
 | CS(=O)(=O)N1CCc2c(c(-c3ccc(Cl)c(C#Cc4ccc5c(c4)CN[C@@H](C(N)=O)C5)c3)nn2CCCN2CCOCC2)C1 [Example 197, (3R)-7-({2-Chloro-5-[5-(methylsulfonyl)-1-(3-morpholin-4-ylpropyl)-4,5,6,7-tetrahydro-1H-pyrazolo[4,3-c]pyridin-3-yl]phenyl}ethynyl)-1,2,3,4-tetrahydroisoquinoline-3-carboxamide] | 200 nM
 | COC(=O)[C@@H]1Cc2ccc(C#Cc3cc(-c4nn(CCCN5CCOCC5)c5c4CN(S(C)(=O)=O)CC5)ccc3Cl)cc2CN1 [Example 198, Methyl (3S)-7-({2-chloro-5-[5-(methylsulfonyl)-1-(3-morpholin-4-ylpropyl)-4,5,6,7-tetrahydro-1H-pyrazolo[4,3-c]pyridin-3-yl]phenyl}ethynyl)-1,2,3,4-tetrahydroisoquinoline-3-carboxylate] | 70 nM
60 nM | CS(=O)(=O)N1CCc2c(c(-c3ccc(Cl)c(C#Cc4ccc5c(c4)CN[C@H](C(=O)O)C5)c3)nn2CCCN2CCOCC2)C1 [Example 199, (3S)-7-({2-Chloro-5-[5-(methylsulfonyl)-1-(3-morpholin-4-ylpropyl)-4,5,6,7-tetrahydro-1H-pyrazolo[4,3-c]pyridin-3-yl]phenyl}ethynyl)-1,2,3,4-tetrahydroisoquinoline-3-carboxylic acid] | 
 | COC(=O)[C@H]1Cc2ccc(C#Cc3cc(-c4nn(CCCN5CCOCC5)c5c4CN(S(C)(=O)=O)CC5)ccc3Cl)cc2CN1 [Example 200, Methyl (3R)-7-({2-chloro-5-[5-(methylsulfonyl)-1-(3-morpholin-4-ylpropyl)-4,5,6,7-tetrahydro-1H-pyrazolo[4,3-c]pyridin-3-yl]phenyl}ethynyl)-1,2,3,4-tetrahydroisoquinoline-3-carboxylate] | 90 nM
 | CS(=O)(=O)N1CCc2c(c(-c3ccc(Cl)c(C#Cc4ccc5c(c4)CN[C@@H](CO)C5)c3)nn2CCCN2CCOCC2)C1 [Example 201, [(3R)-7-({2-Chloro-5-[5-(methylsulfonyl)-1-(3-morpholin-4-ylpropyl)-4,5,6,7-tetrahydro-1H-pyrazolo[4,3-c]pyridin-3-yl]phenyl}ethynyl)-1,2,3,4-tetrahydroisoquinolin-3-yl]methanol] | 190 nM
390 nM | CS(=O)(=O)N1CCc2c(c(-c3ccc(Cl)c(C#Cc4ccc5c(c4)CN[C@@H](C(=O)O)C5)c3)nn2CCCN2CCOCC2)C1 [Example 202, (3R)-7-({2-Chloro-5-[5-(methylsulfonyl)-1-(3-morpholin-4-ylpropyl)-4,5,6,7-tetrahydro-1H-pyrazolo[4,3-c]pyridin-3-yl]phenyl}ethynyl)-1,2,3,4-tetrahydroisoquinoline-3-carboxylic acid] | 
570 nM | COC(=O)C1Cc2cc(C#Cc3cc(-c4nn(CCCN5CCOCC5)c5c4CN(S(C)(=O)=O)CC5)ccc3Cl)ccc2CN1C(=O)OC(C)(C)C (stereo not shown) [Example 203, 2-(1,1-Dimethylethyl) 3-methyl 6-({2-chloro-5-[5-(methylsulfonyl)-1-(3-morpholin-4-ylpropyl)-4,5,6,7-tetrahydro-1H-pyrazolo[4,3-c]pyridin-3-yl]phenyl}ethynyl)-3,4-dihydroisoquinoline-2,3(1H)-dicarboxylate] | 
120 nM | CS(=O)(=O)N1CCc2c(c(-c3ccc(Cl)c(C#Cc4ccc5c(c4)CC(C(=O)N4CCCCC4)NC5)c3)nn2CCCN2CCOCC2)C1 (stereo not shown) [Example 204, 6-({2-Chloro-5-[5-(methylsulfonyl)-1-(3-morpholin-4-ylpropyl)-4,5,6,7-tetrahydro-1H-pyrazolo[4,3-c]pyridin-3-yl]phenyl}ethynyl)-3-(piperidin-1-ylcarbonyl)-1,2,3,4-tetrahydroisoquinoline] | 
270 nM | COC(=O)C1Cc2cc(C#Cc3cc(-c4nn(CCCN5CCOCC5)c5c4CN(S(C)(=O)=O)CC5)ccc3Cl)ccc2CN1 (stereo not shown) [Example 205, Methyl 6-({2-chloro-5-[5-(methylsulfonyl)-1-(3-morpholin-4-ylpropyl)-4,5,6,7-tetrahydro-1H-pyrazolo[4,3-c]pyridin-3-yl]phenyl}ethynyl)-1,2,3,4-tetrahydroisoquinoline-3-carboxylate] | 
210 nM | CS(=O)(=O)N1CCc2c(c(-c3ccc(Cl)c(C#Cc4ccc5c(c4)CC(CO)NC5)c3)nn2CCCN2CCOCC2)C1 (stereo not shown) [Example 206, [6-({2-Chloro-5-[5-(methylsulfonyl)-1-(3-morpholin-4-ylpropyl)-4,5,6,7-tetrahydro-1H-pyrazolo[4,3-c]pyridin-3-yl]phenyl}ethynyl)-1,2,3,4-tetrahydroisoquinolin-3-yl]methanol] | 
2860 nM | COC(=O)C1c2ccc(C#Cc3cc(-c4nn(CCCN5CCOCC5)c5c4CN(S(C)(=O)=O)CC5)ccc3Cl)cc2CCN1C(=O)OC(C)(C)C (stereo not shown) [Example 207, 2-(1,1-Dimethylethyl) 1-methyl 6-({2-chloro-5-[5-(methylsulfonyl)-1-(3-morpholin-4-ylpropyl)-4,5,6,7-tetrahydro-1H-pyrazolo[4,3-c]pyridin-3-yl]phenyl}ethynyl)-3,4-dihydroisoquinoline-1,2(1H)-dicarboxylate] | 
